Data reported in patent US11198699B2 (ALIGOS THERAPEUTICS, INC., priority 2019, dated 2021).

Experiments:
[1] = biological target: T1, PRMT5/MEP50 (Homo sapiens (Human), UniProt O14744); experiment: PRMT5/MEP50 enzyme inhibition assay, Assay 2 (384-well, MALDI mass spectrometry, histone H4 1-21 peptide); type: biochemical; details: 1 μM SAM, 0.1 μM histone H4 1-21 peptide, 18-hour incubation at rt
Protocol: Compounds were tested for inhibition of methyltransferase activity in 384-well plate assay format using mass spectrometry technology. In this enzyme inhibition assay, compounds were tested in a 11-dose IC50 mode with 3-serial dilution, in duplicate, starting at 1, 10, or 100 μM. Reactions were carried out at 1 μM SAM and 0.1 μM histone H4 1-21 peptide as substrates for methyl transfer. Following an 18-hour incubation at rt, the reaction was stopped with 0.5% formic acid. Products of the reaction were captured while unreacted substrates were washed away, prior to MALDI mass spectrometry detection and analysis. Percent enzyme activity was calculated based on no inhibitor DMSO control as 100% activity. EC50 values were determined in GraphPad Prism 8 using the [inhibitor] vs. response—Variable slope (four parameters) function.
(§1) Compounds of Formula (I) show activity in this assay. A value of ‘A’ in the table below indicates an IC50 of <1 nM, a value of ‘B’ indicates an IC50≥1 nM to ≤100 nM, and a value of ‘C’ indicates an IC50 value of >100 nM.

[2] = test system: HepG2 hepatoma cells; experiment: Cell proliferation assay, HepG2 (CellTiter-Glo, 7 days); type: cell-based; details: HepG2, 7 days, CellTiter-Glo 2.0
Protocol: (§2) HepG2 hepatoma cells (ATCC, HB-8065) were maintained in DMEM with high glucose (Lonza, 12-914F) supplemented with 10% fetal bovine serum (FBS; Biowest, S181B-500) and 2 mM L-glutamine (Biowest, X0551-100) at 37° C. and 5% CO2. A549 lung carcinoma cells (ATCC, CCL-185) were maintained in F-12K medium (ThermoFisher 21127030) supplemented with 10% FBS at 37° C. and 5% CO2. Exponentially growing HepG2 or A549 were plated in white, clear-bottom 96-well plates (Corning, 3903) at a cell density of 2000 (HepG2) or 350 (A549) cells per well in 199 μL of HepG2 medium. Next, 1 μL of a 5-fold 9-point dilution series of test compound in DMSO was added to the different wells. Cells were incubated at 37° C. 5% CO2 for 7 days. Cell viability was assessed on day 7 with the CellTiter-Glo 2.0 Cell Viability assay kit (Promega, G9243) to quantify the intracellular amounts of ATP: first, 100 μL of cell culture medium was removed from each well, next 100 μL of CellTiter-Glo® 2.0 Reagent was added and plates were shaken for 2 minutes on an orbital shaker. After 10 minutes stabilization at room temperature, read-out was performed on a ThermoFisher VarioSkan Lux plate reader. Counts were normalized to DMSO control (0% inhibition) and the cytotoxic control (100% inhibition) and EC50 values were determined in GraphPad Prism 8 using the [Agonist] vs. response—Variable slope (four parameters) function.
(§3) As shown by the data of Table 2, compounds of Formula (I) have activity in this assay. A value of ‘A’ in the table below indicates an EC50 of <20 nM, a value of ‘B’ indicates an EC50≥20 nM to <100 nM, a value of ‘C’ indicates an EC50 value of EC50≥100 nM to <1000 nM and a value of ‘D’ indicates an EC50≥1000 nM

[3] = test system: A549 lung carcinoma cells; experiment: Cell proliferation assay, A549 (CellTiter-Glo, 7 days); type: cell-based; details: A549, 7 days, CellTiter-Glo 2.0
Protocol: as §2, §3

[4] = biological target: T1, PRMT5/MEP50; experiment: PRMT5/MEP50 enzyme inhibition assay, Assay 1 (radioisotope filter binding, 3H-SAM, histone H2A); type: biochemical; details: 1 μM 3H-SAM, 5 μM histone H2A, 60 min at 30° C.
Protocol: Compounds were tested for inhibition of methyltransferase activity in a radioisotope filter binding assay, similar to previously described in A selective inhibitor of PRMT5 with in vivo and in vitro potency in MCL models. Chan-Penebre et al., Nat Chem Biol. (2015) 11(6):432-7. In the standard PRMT5/MEP50 enzyme inhibition assay, compounds were tested in a 10-dose IC50 mode with 3- or 5-fold serial dilution, in singlet, starting at 1, 10, or 100 μM. Control compound, SAH (S-(5′-Adenosyl)-L-homocysteine), was tested in 10-dose IC50 mode with 3-fold serial dilution starting at 100 μM. Reactions were carried out at 1 μM 3H-SAM (PerkinElmer) and 5 μM histone H2A as substrates for methyl transfer. Following a 60 min incubation at 30° C., the reaction was stopped with 20% TCA. Each reaction was spotted on a filter plate (Multiscreen FB Filter plate, Millipore) and washed 5 times in PBS, after which scintillation fluid was added and signal was detected in a scintillation counter. Percent enzyme activity was calculated based on no inhibitor DMSO control as 100% activity. EC50 values were determined in GraphPad Prism 8 using the [inhibitor] vs. response—Variable slope (four parameters) function.
as §1

T1 sequence (O14744 whole entry): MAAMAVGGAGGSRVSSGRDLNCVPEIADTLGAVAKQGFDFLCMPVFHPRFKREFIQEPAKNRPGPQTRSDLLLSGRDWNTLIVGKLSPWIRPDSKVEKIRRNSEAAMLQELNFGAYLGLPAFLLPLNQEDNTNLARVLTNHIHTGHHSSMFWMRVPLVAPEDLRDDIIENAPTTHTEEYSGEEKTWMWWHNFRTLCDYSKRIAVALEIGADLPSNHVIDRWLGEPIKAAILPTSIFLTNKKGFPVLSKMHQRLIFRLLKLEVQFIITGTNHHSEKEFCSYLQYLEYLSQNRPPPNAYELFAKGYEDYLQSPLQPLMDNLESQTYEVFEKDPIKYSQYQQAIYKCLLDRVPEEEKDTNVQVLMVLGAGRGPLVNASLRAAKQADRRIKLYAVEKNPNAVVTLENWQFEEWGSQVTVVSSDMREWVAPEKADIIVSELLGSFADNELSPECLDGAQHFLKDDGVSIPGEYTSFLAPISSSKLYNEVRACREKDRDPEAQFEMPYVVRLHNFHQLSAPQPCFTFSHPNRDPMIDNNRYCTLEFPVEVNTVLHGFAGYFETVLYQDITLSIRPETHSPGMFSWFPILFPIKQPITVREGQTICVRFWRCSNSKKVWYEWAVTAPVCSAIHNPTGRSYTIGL
T1 sequence (Q9BQA1 whole entry partner): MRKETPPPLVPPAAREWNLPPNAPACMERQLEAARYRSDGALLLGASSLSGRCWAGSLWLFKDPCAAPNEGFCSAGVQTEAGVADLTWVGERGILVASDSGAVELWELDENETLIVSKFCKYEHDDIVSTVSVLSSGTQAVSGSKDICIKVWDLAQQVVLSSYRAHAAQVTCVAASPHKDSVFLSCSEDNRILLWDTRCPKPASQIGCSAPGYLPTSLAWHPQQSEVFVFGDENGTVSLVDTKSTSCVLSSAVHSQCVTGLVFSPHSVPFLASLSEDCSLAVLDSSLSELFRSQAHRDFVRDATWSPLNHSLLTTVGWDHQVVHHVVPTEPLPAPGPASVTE

SMILES	IC50 [1] [nM]	EC50 ([2]; Homo sapiens, 168 h) [nM]	EC50 [3] [nM]	IC50 [4] [nM]	EC50 [2] [nM]	EC50 ([3]; Homo sapiens, A549, 168 h) [nM]
Nc1ncnc2c1ccn2[C@H]1[C@H](O)[C@H](O)[C@]2(C(O)c3ccc(Cl)c(Cl)c3)C[C@H]12 (single isomer, unassigned) [Compound 7, (1R,2R,3S,4R,5S)-4-(4-aminopyrrolo[2,3-d]pyrimidin-7-yl)-1-[(R or S)-(3,4-dichlorophenyl)-hydroxy-methyl]bicyclo[3.1.0]hexane-2,3-diol]	1 to 100	100 to 1000	100 to 1000	< 1	–	–
Nc1ncnc2c1ccn2[C@H]1[C@H](O)[C@H](O)[C@]2(C(O)c3ccc(Cl)c(Cl)c3)C[C@H]12 (single isomer, unassigned) [Compound 8, (1R, 2R, 3S, 4R, 5S)-4-(4-aminopyrrolo[2,3-d]pyrimidin-7-yl)-1-[(S or R)-(3,4-dichlorophenyl)-hydroxy-methyl]bicyclo[3.1.0]hexane-2,3-diol]	> 100	–	≥ 1000	1 to 100	100 to 1000	–
C[C@]1(/C=C/c2ccc3cc(Br)c(N)nc3c2)C[C@@H](n2ccc3c(N)ncnc32)[C@H](O)[C@@H]1O [Compound 1]	–	–	–	< 1	–	–
Nc1nc2cc(CC[C@@]34C[C@@H]3[C@@H](n3ccc5c(N)ncnc53)[C@H](O)[C@@H]4O)ccc2cc1Br [Compound 2]	< 1	–	< 20	< 1	< 20	–
C=C1[C@@H](n2ccc3c(N)ncnc32)[C@H](O)[C@H](O)[C@H]1CCc1ccc2cc(Br)c(Cl)nc2c1 [Compound 3]	> 100	–	100 to 1000	> 100	100 to 1000	–
C=C1[C@@H](n2ccc3c(N)ncnc32)[C@H](O)[C@H](O)[C@H]1CCc1ccc2cc(Br)c(N)nc2c1 [Compound 4]	< 1	–	< 20	< 1	< 20	–
C[C@H]1[C@H](CCc2ccc3ccc(N)nc3c2)[C@@H](O)[C@@H](O)[C@@H]1n1ccc2c(N)ncnc21 [Compound 5]	< 1	–	100 to 1000	< 1	100 to 1000	–
C[C@@H]1[C@H](CCc2ccc3ccc(N)nc3c2)[C@@H](O)[C@@H](O)[C@@H]1n1ccc2c(N)ncnc21 [Compound 6]	1 to 100	–	≥ 1000	1 to 100	≥ 1000	–
Nc1nc2cc(OC[C@@]3(F)C[C@@H](n4ccc5c(N)ncnc54)[C@H](O)[C@@H]3O)ccc2cc1Br [Compound 9, (1S,2S,3S,5R)-3-[(2-amino-3-bromo-7-quinolyl)oxymethyl]-5-(4-aminopyrrolo[2,3-d]pyrimidin-7-yl)-3-fluoro-cyclopentane-1,2-diol]	< 1	20 to 100	–	< 1	–	20 to 100
Cc1cc2ccc(CC[C@@]3(C)C[C@@H](n4ccc5c(N)ncnc54)[C@H](O)[C@@H]3O)cc2nc1N [Compound 10, (1S,2R,3S,5R)-3-[2-(2-amino-3-methyl-7-quinolyl)ethyl]-5-(4-aminopyrrolo[2,3-d]pyrimidin-7-yl)-3-methyl-cyclopentane-1,2-diol]	< 1	< 20	–	< 1	–	< 20
Nc1nc2cc(OC[C@H]3C[C@@H](n4ccc5c(N)ncnc54)[C@H](F)[C@@H]3O)ccc2cc1Br [Compound 11, (1R,2S,3R,5R)-5-[(2-amino-3-bromo-7-quinolyl)oxymethyl]-3-(4-aminopyrrolo[2,3-d]pyrimidin-7-yl)-2-fluoro-cyclopentanol]	1 to 100	100 to 1000	–	> 100	–	≥ 1000
C[C@]1(CCc2ccc3ccc(N)nc3c2)C[C@@H](n2ccc3c(N)ncnc32)[C@H](O)[C@@H]1O [Compound 12, (1S,2R,3S,5R)-5-(4-amino-7H-pyrrolo[2,3-d]pyrimidin-7-yl)-3-(2-(2-aminoquinolin-7-yl)ethyl)-3-methylcyclopentane-1,2-diol]	< 1	< 20	–	< 1	–	< 20
Nc1ccc2ccc(CC[C@@]34C[C@@H]3[C@@H](n3ccc5c(N)ncnc53)[C@H](O)[C@@H]4O)cc2n1 [Compound 13, (1R,2R,3S,4R,5S)-4-(4-aminopyrrolo[2,3-d]pyrimidin-7-yl)-1-[2-(2-amino-7-quinolyl)ethyl]bicyclo[3.1.0]hexane-2,3-diol]	< 1	< 20	–	< 1	–	< 20
C[C@]1(CCc2ccc3cc(C4CC4)c(N)nc3c2)C[C@@H](n2ccc3c(N)ncnc32)[C@H](O)[C@@H]1O [Compound 14, (1S,2R,3S,5R)-3-[2-(2-amino-3-cyclopropyl-7-quinolyl)ethyl]-5-(4-aminopyrrolo[2,3-d]pyrimidin-7-yl)-3-methylcyclopentane-1,2-diol]	< 1	< 20	–	< 1	–	< 20
